Experimental findings from patent US6586006B2, “Solid delivery systems for controlled release of molecules incorporated therein and methods of making same” (Elan Drug Delivery Limited, priority 1994, dated 2003) are described below.

What all share (format): physicochemical
Series [1] is described as follows: Glass transition temperature (Tg) by thermal analysis (DSC). The source says: In general, the tendency to crystallize, from a cooling melt or with reducing solvent, is low. Both devitrification and the fluidity of the melt at temperatures close to Tg, can be controlled by modifiers such as other derivative sugars and certain organic actives. The following two tables, generated as described in the Examples presented below, provide Tg and melting temperature data for a variety of HDCs suitable for use, either alone, or in a composite glass, herein.
Dissolution of synthetic corticosteroid XPDO (described below) into a TOAC melt and quenching to form the vitreous solid dose delivery system was achieved. By looking at the release of MB9 into aqueous solution, these experiments tested the compatibility of the steroid within the glass, subsequent recovery of the steroid and studied the effect that XPDO has on the properties of the delivery system formed looking at the release of MB9 into aqueous solution. TOAC (3.21 g) was pre-melted at 150° C., before being quenched to glass. The glass was finely ground with XPDO (0.15 g) before being remelted. The clear melt was again quenched to yield the composite HDC/active glass. Thermal analysis was carried out on a Rheometric Scientific Differential Scanning Calorimeter (DSC) at a heating rate of 10°/min under a nitrogen atmosphere. The following samples were prepared:
Studies were performed using the synthetic corticosteroid XPDO dissolved in DCM. The solution was spray dried in a Buchi B-191 spray drier, using an inlet temperature of 40° C. […] XPDO was incorporated at 20 wt %. The powder was completely amorphous as confirmed by thermal analysis (Tg=46° C.).

Series [2] can be described thus: Controlled release of encapsulated MB9 dye from HDC glass beads/discs. The note with it: FIG. 11. The procedure:
In the following experiments, the delivery system was preformulated, whether as a single material, or as a mixed composition. This was carried out by intimately grinding the component HDCs together, followed by careful, controlled melting in a furnace, between 120-140° C. and with normal atmosphere to form melts. The melts were quenched to glass by pouring over a brass block. This glass was then finely ground.
MB9 dye (1 or 5 wt %) was mixed with the ground glass prior to re-melting at 140° C. The melt was quenched to form small glass beads (2.5 mm diameter) which were used in controlled release experiments.
Controlled release of encapsulated dye was monitored by suspending three such beads in 25 or 50 ml of deionized water or PBS solution at ambient temperatures (27-30° C.) or at 37° C., as indicated. The media were undisturbed, except for periodic stirring and were replaced at set intervals with fresh media (generally at 72 hr intervals). Both single HDC glasses and composite HDC glasses were formed. […] The use of other HDCs as glass modifiers in the composite HDC formulations enable the tailoring of the glasses formed to yield the release characteristics desired.
In FIG. 8, the results were obtained from TOAC glass discs (6 mm×2.5 mm) with MB9 dye evenly dispersed therein at 2 wt %. Release was controlled at 25° C. with gentle stirring and media changes at regular intervals. Note the linear release of MB9 dye over a 55 day period. The results presented in FIG. 8 indicate that a pure HDC vitreous delivery vehicle system gives zero-order release rates of guest substances. The results presented in FIGS. 9-14 show variation on release rates by changing the ratios of different HDCs in the delivery systems, changing the carbohydrate backbone length and by changing the nature of the derivative on the carbohydrate backbone. In each instance it is clear that the HDC delivery systems allow a wide range of release rates that can be tailored to the guest substance and the delivery thereof.

Series [3] can be described thus: Resistance of glasses to devitrification on exposure to relative humidity. The procedure: Glasses were made by evaporating DCM on a hotplate set at 65° C. from a 25% solutions of TOAC (50% solutions often deposited crystals in the pipette tip). Drying was carried out for 2 hr to be certain of complete dryness. Uniform glasses were produced by using an Eppendorf-type pipette to deliver 100 μl to a slide recently placed on the hotplate and then removing about 50 μl by using the clear/expel volume of the pipette.
XPDO was therefore incorporated into a TOAC glass by dissolving both crystalline TOAC and XPDO in DCM and evaporating the solvent at 70° C. on a hotplate. XPDO was used in proportions of 10% and 20% of total solids in the final TOAC glass.
The resulting glasses were tested for their utility as controlled release matrices in two ways. First, they were assessed for their ability to resist devitrification on exposure to high RH at RT. Second, they were immersed in water or phosphate-buffered saline (PBS) to study their solubility and rate of erosion by surface recrystallization.

Series [4] is described as follows: Weight loss and dye release of glucose pentaacetate glass discs in water. Here is the method:
Another glass disc of similar dimensions was prepared from α-D-glucose pentaacetate and placed in 1 l of water, which was replaced daily. After 7 days, the glass had lost 20% of its original weight. The release rate of the dye was higher in the first day as the release happened mainly from the surface of the glass disc.

Series [5] in a line: Water resistance and dye release of carboxylate, HDC or plastic coated/coformulated systems.
Experimental: These particles were coated by adding them to a saturated solution of zinc palmitate (ZnC16) in toluene and cooling from 60° C. to 30° C. This deposited a layer of ZnC16 on the particles which were then filtered under vacuum to remove the excess ZnC16, washed with acetone and air-dried.
A fine amorphous film (100-200 μm thickness) was formed by casting on silicate glass slides and evaporating off the solvent in a warm air-stream.
Amorphous films were also formed from calcium neodecanoate dissolved in chloroform (0.5 g/10 ml) as described above.
Films of glucose glass incorporating 1 wt % MB9 were formulated by quenching from the melt. These films were coated with thin (100 μm thickness) amorphous metal carboxylate films by evaporation of solution of the carboxylate in chloroform (0.5 g/10 ml). The metal carboxylates used were aluminum hexanoate and octanoate, calcium neodecanoate and magnesium isostearate and neodecanoate. Dissolution of the films was monitored by release of dye into distilled water.
Series [6] in a line: Enzyme activity after exposure to acetone, dried with or without trehalose. To be noted: dried with 50% trehalose versus without, FIGS. 5A and 5B. The procedure:
A 0.1 mg/ml horseradish peroxidase solution or a 1 mg/ml alkaline phosphatase/4 mg/ml bovine serum albumin solution was dried in an FTS Systems freeze drier with or without 50% trehalose. The drier was used as a vacuum drier and the mixtures dried without freezing. Four times the volume of solvent was added and the solution was allowed to evaporate to dryness. The contents were redissolved in 5 milliliters of water, and enzyme activity was assessed, in serial dilution, by commercial ‘kit’ reagents.

A short description of series [7]: Phycoerythrin fluorescence (functional activity) after solvents, heat or processing. The procedure:
Glasses were formed by drying 20% solutions of either trehalose, lactitol, palatinit or GPS, containing MWPB and 1 mg/ml of the fluorescent algal protein phycoerythrin under vacuum (80 mTorr) for 16 hrs. The glasses were ground in a domestic coffee mill to yield a coarse powder which was used to fill the spinning head of a Kando K1 Kandy Floss cotton candy machine (GB Patent No. 1533012). The motor was then switched on and the powdered sugar glass heated at element settings between 5 and 9. Residence time in the spinning head was 2-10 min and a continuous process was maintained by constantly topping up the head.
A 400 μg/ml phycoerythrin solution was freeze-dried in a Labconco freeze-drier with or without 20% trehalose. The dried protein powder was exposed to a number of organic solvents for 72 hrs.
A 400 μg/ml phycoerythrin solution was freeze-dried in the FTS drier with or without 20% trehalose. […]

Where [8] appears, read: freeze-dried powder in pyridine.

With `CC(=O)OC[C@H]1O[C@@H](O[C@H]2[C@H](OC(C)=O)[C@@H](OC(C)=O)C(OC(C)=O)O[C@@H]2COC(C)=O)[C@H](OC(C)=O)[C@@H](OC(C)=O)[C@@H]1OC(C)=O` (stereo partly shown) [COAC, cellobiose octaacetate], the “Tg/° C.” value in series [1] (single HDC glasses (Table 1)) turned out to be 65 °C.
Still for that read-out and setting: with `CCCCCCCCO[C@@H]1O[C@H](COC(C)=O)[C@@H](OC(C)=O)[C@H](OC(C)=O)[C@H]1OC(C)=O` [OGTA, 1-0-Octyl-β-D-glucose tetraacetate] the figure was −10 °C.
In the case of `CC(=O)OCC1OC(OCC2OC(OC3(COC(C)=O)OC(COC(C)=O)C(OC(C)=O)C3OC(C)=O)C(OC(C)=O)C(OC(C)=O)C2OC(C)=O)C(OC(C)=O)C(OC(C)=O)C1OC(C)=O` (stereo not shown) [RUDA, raffinose undecaacetate], the MB9 release profile entry in series [2] (TOAC/RUDA glass spheres into PBS) is on record as “biphasic release rate”. Moreover, the “initial fast release of MB9 dye” value in series [2] (glass spheres into PBS, in 5 days) was “about 60%”. Further, the “Tg/° C.” value was 55 °C in series [1] (single HDC glasses (Table 1)); 55 °C in series [1] (single and composite HDC glasses, mole ratios of HDCs in glass (Table 2)).
As for `CC(=O)OC[C@H]1O[C@@](COC(C)=O)(O[C@H]2O[C@H](COC(C)=O)[C@@H](OC(C)=O)[C@H](OC(C)=O)[C@H]2OC(C)=O)[C@@H](OC(C)=O)[C@@H]1OC(C)=O` [SOAC, sucrose octaacetate], the “Tg/° C.” value in series [1] (single HDC glasses (Table 1)) turned out to be 25 °C.
For the compound `CCC(=O)OCC1OC(OC2OC(COC(=O)CC)C(OC(=O)CC)C(OC(=O)CC)C2OC(=O)CC)C(OC(=O)CC)C(OC(=O)CC)C1OC(=O)CC` (stereo not shown) [TOPR, trehalose octapropanoate], the “devitrification at RH from 75% to 95%” value in series [3] (thin glass films and quenched disks, RT, overnight exposure) was “very susceptible to devitrification at high RH”. The “Tg/° C.” value in series [1] (single HDC glasses (Table 1)) stood at 3 °C.
For `OC[C@H]1O[C@H](O[C@H]2O[C@H](CO)[C@@H](O)[C@H](O)[C@H]2O)[C@H](O)[C@@H](O)[C@@H]1O` [Trehalose, α-D-glucopyranosyl-α-D-glucopyranoside], the “recrystallization of glass on storage” value in series [3] (trehalose glass from evaporating water from 50% trehalose solution) is given as “gradually recrystallized over a period of several weeks”.
With `CC(=O)OC[C@H]1O[C@H](OC(C)=O)[C@H](OC(C)=O)[C@@H](OC(C)=O)[C@@H]1OC(C)=O` [α-GPAC, α-glucose pentaacetate], in series [1] (single HDC glasses (Table 1)), the “Tg/° C.” value turned out to be 14 °C. Also, the “loss of original weight” value in series [4] (glass disc in 1 l of water replaced daily, after 7 days) is 20%. For the same compound, the “rate of release of encapsulated Acid Blue dye” value in series [4] (glass disc in water, FIG. 7) was “quite constant”.
In the case of `CC(=O)OC[C@H]1O[C@@H](OC(C)=O)[C@H](OC(C)=O)[C@@H](OC(C)=O)[C@@H]1OC(C)=O` [β-GPAC, β-glucose pentaacetate], the “Tg/° C.” value in series [1] (single HDC glasses (Table 1)) turned out to be 17 °C. Moreover, the “solubility of glass in water” value in series [4] is given as “poorly soluble in water”. Also, the “loss of original weight” value in series [4] (glass disc 20 mm diameter, 2.5 mm thick, flowing water, 10 days) is listed as “about 33%”.
Regarding Aluminum hexanoate, in series [5] (100-200 μm film, 1 wt % MB9, distilled water, 5 hr), the “devitrification of film during dye release” value is “No devitrification”.
In the case of alkaline phosphatase, the “resistance of enzyme activity to acetone” value in series [6] was “more resistant to acetone”.
As to calcium neodecanoate, in series [5] (film with MB9 in distilled water, 24 hr, Ca2+ by atomic adsorption spectroscopy), the “dye release relative to film dissolution” value is recorded as “followed the dissolution of the films”.
Take horseradish peroxidase: the “resistance of enzyme activity to acetone” value in series [6] is reported as “more resistant to acetone”.
Turning to magnesium isostearate, the “delay of dye release” value in series [5] (glucose glass film with 1 wt % MB9 coated with 100 μm metal carboxylate film, distilled water) worked out at 10 days.
Take phycoerythrin: the “fluorescence after exposure to organic solvent” value is recorded as “remained fluorescent” in series [7] (dimethylsulfoxide, powder solubilized); “remained fluorescent” in series [7] (freeze-dried with 20% trehalose, acetone, acetonitrile chloroform and methanol, 72 hrs). The “functional activity after storage at 100° C.” value in series [7] (dried in trehalose, one month) is “no detectable loss of functional activity”. In series [7] (setting [8]), the “time by which fluorescence was lost” value is at most 72 h. In series [7] (setting [8]), this compound returned a time fluorescence remained of 24 to 48 h. For the same compound, the “biological activity as assessed by fluorescence” value in series [7] (in spun sugar glass microneedles) is “retention of biological activity”. In addition, the “biological functionality by ability to fluoresce” value in series [7] (trehalose glass powder co-melted into carboxylate glass at 95° C.) is listed as “retained its biological functionality”. Also, the “fluorescence in carboxylate glass formed by evaporation” value in series [7] (trehalose glass powder in 1:1 sodium octanoate/zinc ethylhexanoate, chloroform) is on record as “remained fluorescent”. Besides, in series [7] (trehalose glass powder in perspex from chloroform), the “fluorescence in perspex block” value is “remained fluorescent”.
For the compound zinc palmitate [ZnC16], the “wetting of coated powder in water” value in series [5] (spray-dried trehalose/calcium lactate/MB9 particles coated with ZnC16) is given as “remained unwetted in water for at least three days”.
